Test results taken from patent publication US7652027B2, “Phenanthroindolizidine alkaloids” (National Health Research Institutes, priority 2005, dated 2010).

Legend:
[1] = test system: HONE-1 (nasopharyngeal carcinoma); assay: Carcinoma cell growth inhibition (MTS assay), HONE-1; format: cell-based; conditions: 72 h
Method: (§1) Two cancer cell lines, HONE-1 (nasopharyngeal carcinoma) and NUGC-3 (gastric cancer), were maintained in DMEM medium containing 10% fetal bovine serum, seeded in 96-well plates (4500 and 6000 cells/well, respectively), and incubated under CO2 at 37° C. for 24 h. The cells were treated with at least five different concentrations of test compounds in a CO2 incubator for 72 h. The number of viable cells was estimated using the tetrazolium dye reduction assay (MTS assay) according to the protocol provided by the manufacturer (Promega, Madison, Wis., USA). The absorbance was measured at 490 nm on a Wallac 1420 VICTOR2 Multilabel counter (Perkin-Elmer, Boston, Mass.). The results of these assays were used to obtain the dose-response curves from which IC50 (nM) values were determined (an IC50 value represents the concentration (nM) of the test compound at which it produces a 50% cell growth inhibition after 3 days of incubation).

NUGC-3 (gastric cancer) = assay: Carcinoma cell growth inhibition (MTS assay), NUGC-3; format: cell-based; conditions: 72 h
Method: as §1

iNOS promoter = assay: iNOS promoter-luciferase reporter assay in LPS/IFNγ-treated RAW 264.7 (or A549) cells; format: cell-based, murine or human; conditions: 10 μM compound; 5 μg/ml LPS, 20 ng/ml IFNγ; 18-20 h
Method: RAW 264.7 cells (or A549 cells) were seeded in 24-well plates (9×10^4 cells/well) and grown overnight in sodium pyruvate-free DMEM with 4 mM glutamine containing 1% non-essential amino acids (Biological Industries, Israel) with antibiotics and 10% heat-inactivated fetal bovine serum or 10% fetal calf serum (Biological Industries, Israel). The cells were then co-transfected with murine or human iNOS or murine COX-II promoter-luciferase reporter plasmids (100 ng/well) and pCMV-β-gal (100 ng/well) using FuGene6 (Roche, Germany) following the protocol provided by the manufacturer. Murine iNOS promoter luciferase plasmids, human iNOS promoter-luciferase reporter plasmids (pGL3-8296), and murine COX-II promoter-luciferase reporter plasmids were generously provided by Drs. Charles J. Lowenstein (John Hopkines University), Joel Moss (National Institute of Health), and Yu-Chih Liang (Taipei Medical University), respectively. […]
The luciferase and β-galactosidase assays were performed using a STEADY-GLO luciferase assay system (Promega) and Galacto-Star assay system (Tropix) according to the manufacturer's instructions. Luminescence was measured in a TOPCOUNT.NXT™ Microplate Scintillation and Luminescence Counter (Packard Inc.). […]

AP1 = assay: pAP 1-Luc luciferase reporter assay in LPS/IFNγ-treated RAW 264.7 (or A549) cells; format: cell-based; conditions: at the concentration higher than 1 μM; LPS (10 μg/ml)/IFNγ (20 ng/ml), 5 h
Method: (§2) The luciferase and β-galactosidase assays were performed using a STEADY-GLO luciferase assay system (Promega) and Galacto-Star assay system (Tropix) according to the manufacturer's instructions. Luminescence was measured in a TOPCOUNT.NXT™ Microplate Scintillation and Luminescence Counter (Packard Inc.). The results were normalized to β-galactosidase activity derived from co-transfected LacZ gene under the control of a constitutive promoter.
(§3) RAW 264.7 cells (or A549 cells) were seeded in 24-well plates (10^6 cells/well) 4-6 h before they were transfected with pNF-κB-Luc (Stratagene Corp., Calif.) (100 ng/well) and pCMV-β-gal (100 ng/well), or pAP 1-Luc (Stratagene Corp., Calif.) (200 ng/well) alone. The transfected cells were incubated for 24 h and then washed with the culture medium twice. After 18 h of incubation, the cells were treated with LPS (10 μg/ml)/IFNγ (20 ng/ml) and Compound 2 (final concentration: 0.3, 1, 3, or 10 μM) for 5 h. The cells were subjected to the luciferase and β-galactosidase assays.

NF-κB [2] = assay: pNF-κB-Luc luciferase reporter assay in LPS/IFNγ-treated RAW 264.7 (or A549) cells; format: cell-based
Method: as §2, §3

AP 1 = assay: pAP 1-Luc reporter assay in RAW264.7 cells co-transfected with pFC-MEKK; format: cell-based; conditions: at the concentration of 3 μM or higher; cells treated with LPS/IFNγ
Method: as §3
(§4) In a similar manner, RAW264.7 cells were transfected with pNF-κB-Luc plasmids (100 ng/well) or pAP 1-Luc (100 ng/well) as well as pFC-MEKK (Stratagene Corp., Calif.) (50 ng/well) and/or pCMV-β-gal plasmids (100 ng/well) and the transfected cells were subjected to the luciferase and β-galactosidase assays.

NF-κB [3] = assay: pNF-κB-Luc reporter assay in RAW264.7 cells co-transfected with pFC-MEKK; format: cell-based; conditions: at the concentration of 3 μM or higher; cells treated with LPS/IFNγ
Method: as §3, §4

MEKK1 = target: T1, MEKK1 (Mus musculus, UniProt P53349); assay: MEKK1 inhibition inferred from reporter assays in MEKK1 over-expressing RAW264.7 cells; format: cell-based; conditions: suggested by the reporter results in MEKK1 over-expressing cells
T1 construct: host or cells: RAW264.7
T1 sequence (P53349 1201-1493 limits assumed): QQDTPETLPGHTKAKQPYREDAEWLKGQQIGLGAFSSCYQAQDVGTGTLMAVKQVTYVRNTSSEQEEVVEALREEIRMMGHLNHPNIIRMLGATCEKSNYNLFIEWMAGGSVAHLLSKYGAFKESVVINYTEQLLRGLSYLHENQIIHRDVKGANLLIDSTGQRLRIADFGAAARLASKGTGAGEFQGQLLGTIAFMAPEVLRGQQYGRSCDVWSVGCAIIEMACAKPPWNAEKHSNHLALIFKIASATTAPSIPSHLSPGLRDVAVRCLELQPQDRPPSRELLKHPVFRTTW
Method: as §4

Akt = assay: Phosphorylation of Akt in LPS/IFNγ-treated RAW264.7 cells; format: cell-based
ATF-2 = assay: Phosphorylation of ATF-2 in LPS/IFNγ-treated RAW264.7 cells; format: cell-based
c-Jun = assay: Expression of c-Jun in LPS/IFNγ-treated RAW264.7 cells; format: cell-based
TNF α = TNF α protein ELISA in cell culture supernatants; format: cell-based
Method: RAW 264.7 cells were seeded (70,000 cells/well) and cultured in 96-well culture plate. After 24 h incubation, the medium was replaced with one containing LPS (5 ug/ml)/IFNγ (20 ng/ml) and each of Compounds 1-4 (final concentration: 3, 5, or 6 μM) was added at different concentrations. After 18-24 h, the supernatants were subjected to the measurement of nitric oxide production using the Nitrate/Nitrite assay kit (Cayman Chemical). Nitric oxide levels were measured as the accumulation of nitrite and nitrate in the incubation medium. Nitrate was reduced to nitrite with nitrate reductase and determined spectrophotometrically with the Griess reagent at OD405. The attached cells were subjected to cytotoxicity measurement using the MTS assay.
An ELISA kit (R & D Systems Inc., USA) was used to measure TNF α protein in cell culture supernatants using according to the manufacturer's instructions.

iNOS = iNOS level by immunoblotting; format: cell-based; conditions: immunoblotting of cell lysates
Method: (§5) Levels of iNOS, COX-II, and β-actin (control) were measured by immunoblotting with anti-iNOS antibody (Biomol), anti-COX-II antibody (Upstate), and anti-β-actin antibody (Chemicon), respectively. The cell lysates were subjected to SDS-PAGE and the separated proteins were electrophoretically transferred to nitrocellulose membranes. The membranes were incubated, respectively, with blocking solution for 1 h, primary antibody for 2 h, and secondary antibody for 1 h. Antigen-antibody complexes were detected using ECL detection reagents (Perkin Elmer, Western Blot Chemiluminescence Reagent Plus) according to the manufacturer's instructions.

COX-II = COX-II level by immunoblotting; format: cell-based; conditions: immunoblotting of cell lysates
Method: as §5

Row | Compound | inhibition of proliferation of HONE-1 cells [1] | inhibition of proliferation of NUGC-3 cells (NUGC-3 (gastric cancer)) | inhibition of iNOS promoter activity (iNOS promoter) | inhibition of AP 1 activity (AP1) | inhibition of NF-κB activity, Compound 2 and another P13K/Akt inhibitor (NF-κB [2]; Compound 2 and LY294002 named together, LPS/IFNγ-treated RAW264.7 cells) | inhibition of NF-κB activity (NF-κB [2]; tested at 0.3, 1, 3, or 10 μM, LPS (10 μg/ml)/IFNγ (20 ng/ml), 5 h, serum-free medium) | inhibition of AP 1 activity in cells with over-expression of MEKK1 (AP 1) | inhibition of pNF-κB activity in cells with over-expression of MEKK1 (NF-κB [3]) | inhibition of MEKK1 activity or expression (MEKK1) | phosphorylation of Akt (Akt) | phosphorylation of ATF-2 (ATF-2) | expression of c-Jun (c-Jun) | inhibition of production of TNF α (TNF α) | iNOS level (iNOS) | COX-II level (COX-II)
1 | COc1cc2c3c[n+]4c(cc3c3cc(OC)c(OC)c(OC)c3c2cc1OC)CCC4 [Compound 1] | inhibited | inhibited | – | – | – | – | – | – | – | – | – | – | – | – | –
2 | COc1cc2c3c(c4cc(OC)c(OC)cc4c2cc1OC)CN1CCC[C@H]1C3 [Compound 2] | inhibited | inhibited | effectively inhibited | inhibited | significantly inhibited | not | inhibited | inhibited | inhibited | enhanced | enhanced | inhibited | inhibited | lowered | lowered
3 | COc1cc2c3c(c4cc(OC)c(OC)c(OC)c4c2cc1OC)[C@H](O)[C@@H]1CCC[N+]1([O-])C3 (some centres unmarked) [Compound 4] | inhibited | inhibited | effectively inhibited | – | – | – | – | – | – | – | – | – | – | – | –
